Like-named read-outs stand apart in the source and are kept apart here.
What was measured:
[1] = system: SCD1; test: Measurement of SCD1 expression in SZ95-SCD1-HiBit cells (HiBiT assay); type: cell-based; settings: Homo sapiens; for EC50: read-out: HiBit EC50
Description: Measurement of SCD1 Expression in SZ95-SCD1-HiBit Cells
SCD1 expression levels in SZ95 cells were quantitated using the HiBiT system (Promega) in which a small peptide sequence (SmBiT) with a larger protein (LgBiT) reconstitutes luciferase activity and can generate a luminescent signal used for quantitation. SZ95-SCD1-HiBit cells were generated by editing the SCD1 gene of SZ95 cells resulting in the addition of an 8 amino acid linker sequence (gssggssg, SEQ ID NO:1) followed by an 11-amino acid SmBiT sequence (vsgwrlfkkis, SEQ ID NO:2) at the carboxy-terminus of the SCD1 protein. The gRNA targeting sequence used was […] (SEQ ID NO: 3) and the SCD1 insertion oligonucleotide encoding the SmBiT sequence was:
SZ95-SCD1-HiBit cells were seeded in 384-well cell culture white plates at a density of 3000 cells/30 μl. Water was added to edge wells to avoid evaporation. Cells were incubated in a humidified incubator with 5% CO2 at 37° C. overnight. Tested compounds were diluted at a ratio of 1:3 in DMSO using an Agilent BRAVO Automated Liquid Handling Platform and, after further serial dilutions, added to cells at final concentrations starting from 18 μM. 2-(3-(3-((2-chloro-3-(trifluoromethyl)benzyl)(2,2-diphenylethyl)amino)propoxy)phenyl)acetic acid was used as a reference compound in each plate. Cells in the assay plate were incubated in a humidified incubator with 5% CO2 at 37° C. for 48 h.
The assay plates were removed from the incubator and allowed to equilibrate to room temperature. Nano-Glo® HiBiT Detection Reagent (Promega; a mixture of Nano-Glo HiBiT Detection Buffer, Nano-Glo HiBiT Detection Substrate, and LgBiT protein, according to the manufacturer's instructions) was added into assay plates, at a volume equal to cell culture medium in each well. Plates were placed on an orbital shaker at a speed of 300-600 rpm for 10 min at room temperature, and read on an EnVision Plate Reader using luminescence detection with a 1 second read time.
The assay measures the increase in SCD1 protein production in vitro. Amax refers to the percent EC50 of the tested compound compared to a reference compound, 2-(3-(3-((2-chloro-3-(trifluoromethyl)benzyl)(2,2-diphenylethyl)amino)propoxy)phenyl)acetic acid.

[2] = system: SZ95 sebocytes; test: Sentinel Lipid Assay (SLA), desaturation index in SZ95 sebocytes; type: cell-based; settings: Homo sapiens, 72 h; for EC50: read-out: SLA EC50
Protocol: Sentinel Lipid Assay (SLA)
The sentinel lipid assay was used quantify the change in the global desaturation index in SZ95 sebocytes upon administration of certain LXR agonist compounds provided herein. The assay measures a smaller subset of lipid analytes in meibum (termed “sentinel lipids”) which would model the global changes the population of both saturated and desaturated lipids in the cells. In order to define this smaller subset of lipids, a complete lipid profile was recorded on dose response curves (eight levels from 4 nM to 10 uM) of Compounds 1-72. An elastic net regression model was applied separately to both the saturated and desaturated lipids to determine the minimum combination of coefficients and analytes, which could be used to adequately model the total population of lipids. The elastic net model was able to reduce the behavior of 425 lipids to 11 lipids and the correlation between the desaturation indices observed using the complete set of lipids with from the 11 sentinel lipids was 0.96.
A medium throughput assay was created using this reduced set of sentinel lipids. A single batch is defined as triplicate examples of three unique plates (i.e., a single batch of cells is used to create nine plates for LC-MSMS analysis). Lipids were extracted from the cells using a 1:1 mixture of methylene chloride/methanol containing 10 nM of deuterated standards of triglycerides, which are used as internal standards for quantitating the lipid abundance. The lipids were separated prior to mass spectrometric analysis using a five minute HPLC gradient. The abundance of the sentinel lipids and the internal standards are measured using multiple reaction monitor mode (MRM) on a triple quadrupole mass spectrometer. The data was transformed from total ion current to nmoles/10^6 cells, which are multiplied by the coefficients from the elastic net model to determine the effective desaturated and saturated content, and therein the desaturation index of the dosed cells. In order to compare compounds from multiple batches with one another, the measure raw desaturation index was normalized by dividing it by the desaturation index of the DMSO dosed cells, and all data was assessed as the fraction by which the compound increases the desaturation index above 1.
SZ95 (immortalized human sebaceous gland cells) cells were seeded in Greiner bio-one 96-well polypropylene plates that were pre-treated with 50 μg/mL Human Plasma Fibronectin (Thermo Fisher Scientific) at a density of 10^4 cells/135 μl. Cells were incubated in a humidified incubator with 5% CO2 at 37° C. overnight. Test compounds were diluted at a ratio of 1:3 and added to cells at final concentrations starting from 10 μM. 2-(3-(3-((2-chloro-3-(trifluoromethyl)benzyl)(2,2-diphenylethyl)amino)propoxy)phenyl)acetic acid was used as a positive control reference compound in each plate. Cells in the assay plate were incubated in a humidified incubator with 5% CO2 at 37° C. for 72 h.
Culture medium was removed from the cells and cells in culture plates were washed with ice cold phosphate buffered saline three times. Plates were heat sealed and stored in a −80° C. freezer prior to Sentinel lipid assay. The Amax value refers to the percent EC50 of the tested compound compared to a reference compound, 2-(3-(3-((2-chloro-3-(trifluoromethyl)benzyl)(2,2-diphenylethyl)amino)propoxy)phenyl)acetic acid.

[3] = 48 h, normalized Amax based on the reference compound Amax of 100%, read-out: HiBit Normalized Amax
[4] = SZ95-SCD1-HiBit cells, 48 h, SCD1 protein production, luminescence, initial dilution 1:3 in DMSO
[5] = SZ95-SCD1-HiBit cells, 48 h, compared to reference compound, read-out: HiBit Amax
[6] = normalized Amax based on the reference compound Amax of 100%, read-out: SLA Normalized Amax
[7] = SZ95 cells, desaturation index, lowest dose used 4.6 nM
[8] = SZ95 cells, compared to reference compound, read-out: SLA Amax
[9] = footnote a: initial dilution for the compound 1:100 in assay medium rather than 1:3 in DMSO

EC50 [1, 4] | EC50 [2, 7] | EC50 [1, 9] | SMILES | Emax [1, 3] | Emax [1, 5] | Emax [2, 6] | Emax [2, 8] | Emax ([2]; read-out: SLA Amax) | EC50 [2] | Emax ([2]; read-out: SLA Normalized Amax)
– | 9.7 nM | – | CC1(C)C(=O)N(Cc2nc(-c3ccc(Oc4ccccc4S(=O)(=O)CCN(CCO)CCO)c(C(F)(F)F)c3)no2)C(=O)N1CCN1CCOCC1 [Compound 62, 3-((3-(4-(2-((2-(bis(2-hydroxyethyl)amino)ethyl)sulfonyl)phenoxy)-3-(trifluoromethyl)phenyl)-1,2,4-oxadiazol-5-yl)methyl)-5,5-dimethyl-1-(2-morpholinoethyl)imidazolidine-2,4-dione] | – | – | 154% | 148% | – | – | –
– | – | 4.6 nM | CC(C)CS(=O)(=O)c1ccccc1Oc1ccc(-c2noc(CN3C(=O)N(CCN4CCOCC4)C4(CCN(C(=O)CCC(=O)O)CC4)C3=O)n2)cc1C(F)(F)F [Compound 68, 4-(3-((3-(4-(2-(isobutylsulfonyl)phenoxy)-3-(trifluoromethyl)phenyl)-1,2,4-oxadiazol-5-yl)methyl)-1-(2-morpholinoethyl)-2,4-dioxo-1,3,8-triazaspiro[4.5]decan-8-yl)-4-oxobutanoic acid] | 84% | 79.9% | – | – | – | – | –
0.665 nM | – | – | O=C(O)CCCCC(=O)N1CCC2(CC1)C(=O)N(Cc1nc(-c3ccc(Oc4ccccc4C(F)(F)F)c(C(F)(F)F)c3)no1)C(=O)N2CCN1CCOCC1 [Compound 69, 6-(1-(2-morpholinoethyl)-2,4-dioxo-3-((3-(3-(trifluoromethyl)-4-(2-(trifluoromethyl)phenoxy)phenyl)-1,2,4-oxadiazol-5-yl)methyl)-1,3,8-triazaspiro[4.5]decan-8-yl)-6-oxohexanoic acid] | 76.4% | 72.7% | – | – | – | – | –
– | 99.2 nM | – | CC1(C)NC(=O)N(Cc2nc(-c3ccc(Oc4ccccc4SC(F)(F)F)c(C(F)(F)F)c3)no2)C1=O [Compound 70, 5,5-dimethyl-3-((3-(3-(trifluoromethyl)-4-(2-((trifluoromethyl)thio)phenoxy)phenyl)-1,2,4-oxadiazol-5-yl)methyl)imidazolidine-2,4-dione] | – | – | 67.4% | 64.7% | – | – | –
– | 29.8 nM | – | CN1C(=O)N(Cc2nc(-c3ccc(Oc4ccccc4C(F)(F)F)c(C(F)(F)F)c3)no2)C(=O)C1(C)C [Compound 72, 1,5,5-trimethyl-3-((3-(3-(trifluoromethyl)-4-(2-(trifluoromethyl)phenoxy)phenyl)-1,2,4-oxadiazol-5-yl)methyl)imidazolidine-2,4-dione] | – | – | 82.8% | 79.5% | – | – | –

Further lines, the compound ahead of its results:

SMILES | EC50 [1, 4] | EC50 [2, 7] | EC50 [1, 9] | Emax [1, 3] | Emax [1, 5] | Emax [2, 6] | Emax [2, 8] | Emax ([2]; read-out: SLA Amax) | EC50 [2] | Emax ([2]; read-out: SLA Normalized Amax)
CC1(C)C(=O)N(Cc2nc(-c3ccc(OCC(C)(C(F)(F)F)C(F)(F)F)c(C(F)(F)F)c3)no2)C(=O)N1CCC1CCOCC1 [Compound 1, 5,5-dimethyl-1-(2-(tetrahydro-2H-pyran-4-yl)ethyl)-3-((3-(4-(3,3,3-trifluoro-2-methyl-2-(trifluoromethyl)propoxy)-3-(trifluoromethyl)phenyl)-1,2,4-oxadiazol-5-yl)methyl)imidazolidine-2,4-dione] | 0.496 nM | ≤ 4.6 nM | – | 91.7% | 87.2% | 87.1% | 83.6% | – | – | –
CCCC1(C)C(=O)N(Cc2nc(-c3ccc(Oc4ccccc4S(=O)(=O)CC(C)C)c(C(F)(F)F)c3)no2)C(=O)N1CCN1CCOCC1 (stereo not drawn) [Compound 2, 3-((3-(4-(2-(isobutylsulfonyl)phenoxy)-3-(trifluoromethyl)phenyl)-1,2,4-oxadiazol-5-yl)methyl)-5-methyl-1-(2-morpholinoethyl)-5-propylimidazolidine-2,4-dione] | 1.5 nM | ≤ 4.6 nM | – | 95.2% | 90.5% | 190% | 182% | – | – | –
CC(C)CS(=O)(=O)c1ccccc1Oc1ccc(-c2noc(CN3C(=O)N(CCN4CCOCC4)C4(CCCCC4)C3=O)n2)cc1C(F)(F)F [Compound 3, 3-((3-(4-(2-(isobutylsulfonyl)phenoxy)-3-(trifluoromethyl)phenyl)-1,2,4-oxadiazol-5-yl)methyl)-1-(2-morpholinoethyl)-1,3-diazaspiro[4.5]decane-2,4-dione] | 1.24 nM | ≤ 4.6 nM | – | 78.5% | 74.7% | 117% | 112% | – | – | –
CC(C)CS(=O)(=O)c1ccccc1Oc1ccc(-c2noc(CN3C(=O)N(CCC4CCOCC4)C(C)(C)C3=O)n2)cc1C(F)(F)F [Compound 4, 3-((3-(4-(2-(isobutylsulfonyl)phenoxy)-3-(trifluoromethyl)phenyl)-1,2,4-oxadiazol-5-yl)methyl)-5,5-dimethyl-1-(2-(tetrahydro-2H-pyran-4-yl)ethyl)imidazolidine-2,4-dione] | – | ≤ 4.6 nM | – | – | – | 152% | 146% | – | – | –
CC(C)CS(=O)(=O)c1ccccc1Oc1ccc(-c2noc(CN3C(=O)NC(C)(C)C3=O)n2)cc1C(F)(F)F [Compound 50a, 3-((3-(4-(2-(isobutylsulfonyl)phenoxy)-3-(trifluoromethyl)phenyl)-1,2,4-oxadiazol-5-yl)methyl)-5,5-dimethylimidazolidine-2,4-dione] | – | – | 255 nM | 70.5% | 67% | – | – | – | – | –
CC1(C)C(=O)N(Cc2nc(-c3ccc(Oc4ccccc4S(=O)(=O)C4CCOC4)c(C(F)(F)F)c3)no2)C(=O)N1CCC1CCOCC1 (stereo not drawn) [Compound 59, 5,5-dimethyl-1-(2-(tetrahydro-2H-pyran-4-yl)ethyl)-3-((3-(4-(2-((tetrahydrofuran-3-yl)sulfonyl)phenoxy)-3-(trifluoromethyl)phenyl)-1,2,4-oxadiazol-5-yl)methyl)imidazolidine-2,4-dione] | – | ≤ 4.6 nM | – | – | – | 140% | 135% | – | – | –
CC(C)CS(=O)(=O)c1ccccc1Oc1ccc(-c2noc(CN3C(=O)N(CCN4CCOCC4)C(C)(CN(C)C)C3=O)n2)cc1C(F)(F)F (stereo not drawn) [Compound 60, 5-((dimethylamino)methyl)-3-((3-(4-(2-(isobutylsulfonyl)phenoxy)-3-(trifluoromethyl)phenyl)-1,2,4-oxadiazol-5-yl)methyl)-5-methyl-1-(2-morpholinoethyl)imidazolidine-2,4-dione] | – | – | – | – | – | – | – | 170% | ≤ 4.6 nM | 177%

Reference: patent publication US11427586B2, “1,2,4-oxadiazole derivatives as liver X receptor agonists” (NOVARTIS AG, priority 2019, dated 2022)
